Read-outs that look alike come from different tables or passages of the source.
How the values were obtained:
PRMT5/MEP50 = PRMT5/MEP50 (Homo sapiens (Human), UniProt O14744); assay: PRMT5 Biochemical Assay (PRMT5/MEP50 enzyme assay on peptide substrate, 3H-SAM Flashplate); settings: PRMT5 biochemical assay
In short: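 Radiometric methylation of a biotin-tagged H4(1-15) peptide by human PRMT5/MEP50 from baculovirus/Sf9, with ³H-SAM incorporation read on streptavidin Flashplates. Buffer: Bicine pH 7.6, TCEP, BSG, Tween20; compound preincubated 30 min at 25 °C; stopped with 600 µM final unlabeled SAM. DMSO and SAH controls; IC50 from fitted % inhibition.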

[1] = tested on: symmetric di-methyl arginine in Z-138 cells; assay: Z-138 Methylation Assay (In Cell Western for symmetric di-methyl arginine and DNA content); assay type: cell-based; settings: Homo sapiens, In Cell Western methylation, read-out: ICW EC50
In short: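 Z-138 cells (50,000 cells/mL) treated with compound 96 h at 37 °C, then fixed and stained for symmetric di-methyl arginine (800 nm) with DRAQ5 DNA counterstain (700 nm) on Licor Odyssey.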

Z-138 cell line = assay: Z-138 Proliferation Assay (Cell Titer Glo, 5 days); assay type: cell-based; settings: Homo sapiens, read-out: Proliferation EC50
In short: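 Z-138 cells exposed 5 days at 37 °C, 5% CO2 to nine-point 3-fold dilutions (final top 20 μM, 0.2% DMSO), in triplicate. Viability read as ATP by CellTiter-Glo luminescence; IC50 from 4-parameter fit of normalized dose-response curves.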

[2] = 120 h, Z-138 cells, 5 days, Cell Titer Glo

PRMT5/MEP50, sequence (O14744 other isoform, or with tags, fused parts or gaps): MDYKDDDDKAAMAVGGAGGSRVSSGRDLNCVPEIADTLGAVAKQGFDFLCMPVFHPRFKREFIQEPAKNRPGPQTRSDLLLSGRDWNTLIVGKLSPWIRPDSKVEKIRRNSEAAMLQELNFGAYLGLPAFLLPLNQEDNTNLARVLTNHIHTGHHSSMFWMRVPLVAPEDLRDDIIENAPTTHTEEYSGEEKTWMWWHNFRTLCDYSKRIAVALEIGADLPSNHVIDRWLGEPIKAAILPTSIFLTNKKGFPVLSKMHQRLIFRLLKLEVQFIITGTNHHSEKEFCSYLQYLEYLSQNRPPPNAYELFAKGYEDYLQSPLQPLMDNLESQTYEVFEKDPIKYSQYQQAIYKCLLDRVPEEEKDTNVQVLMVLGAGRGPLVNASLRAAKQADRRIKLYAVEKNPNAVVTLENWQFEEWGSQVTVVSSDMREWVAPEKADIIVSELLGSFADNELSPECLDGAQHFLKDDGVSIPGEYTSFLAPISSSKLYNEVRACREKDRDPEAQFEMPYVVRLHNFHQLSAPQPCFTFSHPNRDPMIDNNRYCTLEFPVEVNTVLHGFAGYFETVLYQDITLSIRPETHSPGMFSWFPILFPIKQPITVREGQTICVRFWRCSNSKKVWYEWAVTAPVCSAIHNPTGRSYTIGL
PRMT5/MEP50, sequence (Q9BQA1 other isoform, or with tags, fused parts or gaps partner): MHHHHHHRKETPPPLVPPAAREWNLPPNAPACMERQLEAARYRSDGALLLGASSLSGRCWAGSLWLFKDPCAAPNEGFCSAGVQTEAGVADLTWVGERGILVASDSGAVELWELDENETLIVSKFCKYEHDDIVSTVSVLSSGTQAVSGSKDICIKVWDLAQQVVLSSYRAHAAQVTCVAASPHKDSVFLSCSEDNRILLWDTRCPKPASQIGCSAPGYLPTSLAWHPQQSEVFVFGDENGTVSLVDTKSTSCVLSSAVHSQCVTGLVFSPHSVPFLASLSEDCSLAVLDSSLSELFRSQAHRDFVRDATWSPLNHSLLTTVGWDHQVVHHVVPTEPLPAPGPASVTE

| Structure (SMILES) | IC50 (PRMT5/MEP50) | EC50 [1] | EC50 (Z-138 cell line; Z-138, 120 h) | EC50 (Z-138 cell line; [2]) |
| --- | --- | --- | --- | --- |
| CCSCCN1CC(Nc2cc(C(=O)NC[C@H](O)CN3CCc4ccccc4C3)ncn2)C1 [Compound 581] | < 100 nM | 101 to 1000 nM | > 5000 nM | – |
| CC(=O)N1CC[C@H](Nc2cc(C(=O)NC[C@H](O)CN3CCc4ccccc4C3)ncn2)C1 [Compound 582] | < 100 nM | < 100 nM | – | 1000 to 10000 nM |
| CC(=O)N1CC(Nc2cc(C(=O)NC[C@H](O)CN3CCc4ccccc4C3C)ncn2)C1 (stereo partly drawn) [Compound 583] | < 100 nM | < 100 nM | – | 1000 to 10000 nM |
| CC(=O)N1CCC(Nc2cc(C(=O)NC[C@H](O)CN3CCc4ccccc4C3C)ncn2)CC1 (stereo partly drawn) [Compound 584] | < 100 nM | < 100 nM | – | 1000 to 10000 nM |
| O=C(NC[C@H](O)CN1CCc2ccccc2C1)c1cc(N[C@H]2CC[C@H](O)CC2)ncn1 [Compound 585] | < 100 nM | < 100 nM | – | 101 to 1000 nM |
| CO[C@H]1CC[C@H](Nc2cc(C(=O)NC[C@H](O)CN3CCc4ccccc4C3)ncn2)CC1 [Compound 586] | < 100 nM | < 100 nM | – | < 100 nM |
| CN(C)C(=O)[C@H]1CC[C@H](Nc2cc(C(=O)NC[C@H](O)CN3CCc4ccccc4C3)ncn2)CC1 [Compound 587] | < 100 nM | < 100 nM | – | < 100 nM |
| CC1(C)c2ccccc2CCN1C[C@@H](O)CNC(=O)c1cc(NC2COC2)ncn1 [Compound 588] | 1000 to 10000 nM | > 1000 nM | – | > 5000 nM |
| CN(C)[C@H]1CC[C@@H](Nc2cc(C(=O)NC[C@H](O)CN3CCc4ccccc4C3)ncn2)CC1 [Compound 589] | < 100 nM | 101 to 1000 nM | – | 1000 to 10000 nM |
| CC(=O)N[C@H]1CC[C@@H](Nc2cc(C(=O)NC[C@H](O)CN3CCc4ccccc4C3)ncn2)CC1 [Compound 590] | < 100 nM | < 100 nM | – | 101 to 1000 nM |
| N[C@H]1CC[C@@H](Nc2cc(C(=O)NC[C@H](O)CN3CCc4ccccc4C3)ncn2)CC1 [Compound 591] | < 100 nM | < 100 nM | – | 1000 to 10000 nM |
| O=C(NC[C@H](O)CN1CCc2ccccc2C1)c1cc(N[C@H]2CC[C@@H](O)CC2)ncn1 [Compound 592] | < 100 nM | < 100 nM | – | 101 to 1000 nM |
| CN(C)[C@H]1CC[C@H](Nc2cc(C(=O)NC[C@H](O)CN3CCc4ccccc4C3)ncn2)CC1 [Compound 593] | < 100 nM | < 100 nM | – | 101 to 1000 nM |
| CC(=O)N[C@H]1CC[C@H](Nc2cc(C(=O)NC[C@H](O)CN3CCc4ccccc4C3)ncn2)CC1 [Compound 594] | < 100 nM | < 100 nM | – | 101 to 1000 nM |
| N[C@H]1CC[C@H](Nc2cc(C(=O)NC[C@H](O)CN3CCc4ccccc4C3)ncn2)CC1 [Compound 595] | < 100 nM | < 100 nM | – | > 5000 nM |
| NC(=O)[C@H]1CC[C@@H](Nc2cc(C(=O)NC[C@H](O)CN3CCc4ccccc4C3)ncn2)CC1 [Compound 596] | < 100 nM | < 100 nM | – | 1000 to 10000 nM |
| CNC(=O)[C@H]1CC[C@@H](Nc2cc(C(=O)NC[C@H](O)CN3CCc4ccccc4C3)ncn2)CC1 [Compound 597] | < 100 nM | < 100 nM | – | 101 to 1000 nM |
| CN(C)C(=O)[C@H]1CC[C@@H](Nc2cc(C(=O)NC[C@H](O)CN3CCc4ccccc4C3)ncn2)CC1 [Compound 598] | < 100 nM | < 100 nM | – | 1000 to 10000 nM |
| O=C(NC[C@H](O)CN1CCc2ccccc2C1)c1cc(N[C@H]2CC[C@@H](C(=O)N3CCOCC3)CC2)ncn1 [Compound 599] | < 100 nM | < 100 nM | – | 1000 to 10000 nM |

Reference: patent publication US10307413B2, “Tetrahydro- and dihydro-isoquinoline PRMT5 inhibitors and uses thereof” (Epizyme, Inc., priority 2013, dated 2019)
